SMILES strings stand for the structures. Where “and” joins values, the source holds several entries; their conditions need not be identical. Identical values can stand only once.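 Five concentrations, 48 hours, 96-well plates. The concentration for 50% growth inhibition is given as GI50. TGI marks complete inhibition of growth.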 Where only a bound is given, the exact number is not on record here.

The first test concerns UACC-257 melanoma. As to the kind of experiment: growth of human tumour cells (NCI), 48 h.
`Cc1nc2cccc([N+](=O)[O-])c2c(NCCCN(C)C)c1C` displayed a TGI of 57.3 µM.

`OCCC1(O)CCC(O)CC1` (stereo not drawn) showed a TGI of over 100 µM.

The compound `CCCCNC1=C(C(=O)OCC)C(=O)CO1` gave a TGI of over 100 µM.

With `CC(C)CC(=O)[O-].CC(C)CC(=O)[O-].N.N.N.N.[Co+3].[O-][Cl+3]([O-])([O-])[O-]`, the GI50 was over 100 µM and the TGI was over 100 µM.

In turn, `COc1cc(C2c3cc4c(cc3C(NCC(O)CO)C3COC(=O)[C@H]23)OCO4)cc(OC)c1OC` (stereo partly drawn) showed a TGI of over 100 µM.

`COC(=O)CC(=O)C[P+](c1ccccc1)(c1ccccc1)c1ccccc1` yielded a TGI of over 218 µM.

Take `CCCCN(CCCC)C(=O)C(=O)C(C#N)c1ccc(C)cc1` (stereo not drawn): the TGI is over 100 µM.

For the compound `Cc1ccc(S(=O)(=O)C(CC(=O)N2CCCC2)C(=O)c2ccccc2)cc1` (stereo not drawn), the TGI was over 100 µM.

For `CC1(C)CC(/C=C2/OC(=O)c3ccccc32)=C(C#N)C(=O)O1`, the TGI is over 100 µM.

For `Cc1nc2c(nc1Cl)nc(Oc1ccc(Cl)cc1)c1ccccc12`, the TGI is over 100 µM.

Take `CC(=O)Nc1ccccc1Sc1ccccc1`: the TGI was over 100 µM.

`COC(=O)C[C@H]1CCC2(OCCO2)[C@]1(C)C(=O)OC` yielded a TGI of over 100 µM.

`CCCCCCCCCC[C@@H](O)[C@@H]1CC[C@H]([C@H]2CC[C@@H]([C@@H](O)CCCCCCCCCC[C@H]3CC(CC(C)=O)C(=O)O3)O2)O1` (stereo partly drawn) displayed a TGI of 26.7 µM.

On to `C=C(CN1CCc2ccccc2C1)c1ccc(C(=O)Nc2cnccn2)cc1`, for which the GI50 was 83.6 µM and the TGI is over 100 µM.

With `CCOc1ccc2c(c1)[n+]([O-])c(S(=O)(=O)c1ccc(C)cc1)c(N)[n+]2[O-]`, the TGI is over 100 µM.

As to `CCOC(=O)NC(=O)c1cn(C2OC(COC(=O)CCCCCCCCC(=O)OCC3OC(n4cc(C(=O)NC(=O)OCC)c(=O)[nH]c4=O)C(O)C3O)C(O)C2O)c(=O)[nH]c1=O` (stereo not drawn), the TGI is over 100 µM.

`Cc1ccc(C)c(NC(=O)CC/C(=N\NC(=O)C(=O)NN)C(C)C(=O)c2ccc(O)cc2)c1` (stereo not drawn) yielded a TGI of over 100 µM.

For `N=C1CSC2=NC3=C(CCC/C3=C\c3ccccc3)C(c3ccccc3)N12` (stereo not drawn), the TGI is 30 µM.

`COc1ccc(CNc2cc(OC)c(OC)c(OC)c2)cc1`: the TGI is over 100 µM.

In turn, `COc1ccccc1C1C(C(=O)Nc2ccccc2)=C(C)NC(C)=C1C(=O)Nc1ccccc1` displayed a TGI of over 100 µM.

Consider `OCc1ccc2[n+](c1)CCC1c3ccccc3NC21` (stereo not drawn), for which the TGI was over 300 µM.

The compound `COc1cccc(-c2cc(=O)c3cc(N(C)C)ccc3[nH]2)c1` showed a TGI of over 100 µM.

In the case of `CCCCCCCCCCCC(=O)CC(=O)c1c(O)cccc1O`, the TGI was 34.5 µM.

As to `CN(C(=O)C12C3C4C1C1C2C3C41C(=O)C(C)(C)C)C(C)(C)C` (stereo not drawn), the TGI is over 100 µM.

Turning to `Cc1cc2c(cc1C)[n+](=O)c(C(=O)CC(=O)C(=O)Nc1c(C(C)C)cccc1C(C)C)c(C)n2[O-]`, the TGI is over 100 µM.

As for `COc1ccc(OC)c(NC(=O)C(=O)C(C(C)=O)c2nc3ccc(Cl)cc3[nH]c2=O)c1` (stereo not drawn), the TGI was over 50 µM.

`N#CC(C(=N/O)/C(=N/O)C(C#N)c1ccc(Cl)cc1)c1ccc(Cl)cc1` (stereo not drawn): the TGI was over 100 µM.

The test system of another test is UACC-62 melanoma. As to the kind of experiment: growth of human tumour cells (NCI), 48 h.
With `CC1(Cl)C(=O)NC(=O)N(C2CC(N=[N+]=[N-])C(CO)O2)C1N=[N+]=[N-]` (stereo not drawn), the TGI is over 100 µM.

Consider `COc1ccc2ccc3c(c2c1)CN1CCc2cc(OC)c(OC)cc2C1C3` (stereo not drawn), for which the TGI is over 100 µM.

As to `Cc1nc2cccc([N+](=O)[O-])c2c(NCCCN(C)C)c1C`, the TGI is over 100 µM.

`OCCC1(O)CCC(O)CC1` (stereo not drawn) gave a TGI of over 100 µM.

For the compound `CCCCNC1=C(C(=O)OCC)C(=O)CO1`, the TGI was over 100 µM.

`CC(C)CC(=O)[O-].CC(C)CC(=O)[O-].N.N.N.N.[Co+3].[O-][Cl+3]([O-])([O-])[O-]`: the GI50 is over 100000 nM and the TGI was over 100 µM.

The compound `COc1cc(C2c3cc4c(cc3C(NCC(O)CO)C3COC(=O)[C@H]23)OCO4)cc(OC)c1OC` (stereo partly drawn) had a TGI of over 100 µM.

With `COC(=O)CC(=O)C[P+](c1ccccc1)(c1ccccc1)c1ccccc1`, the TGI was over 218 µM.

Compound `CCCCN(CCCC)C(=O)C(=O)C(C#N)c1ccc(C)cc1` (stereo not drawn) displayed a TGI of over 100 µM.

`Cc1ccc(S(=O)(=O)C(CC(=O)N2CCCC2)C(=O)c2ccccc2)cc1` (stereo not drawn) came in with a TGI of over 100 µM.

Compound `CC1(C)CC(/C=C2/OC(=O)c3ccccc32)=C(C#N)C(=O)O1` returned a TGI of over 100 µM.

The compound `Cc1nc2c(nc1Cl)nc(Oc1ccc(Cl)cc1)c1ccccc12` registered a TGI of over 100 µM.

`CC(=O)Nc1ccccc1Sc1ccccc1`: the TGI is over 100 µM.

`COC(=O)C[C@H]1CCC2(OCCO2)[C@]1(C)C(=O)OC` had a TGI of over 100 µM.

Compound `CCCCCCCCCC[C@@H](O)[C@@H]1CC[C@H]([C@H]2CC[C@@H]([C@@H](O)CCCCCCCCCC[C@H]3CC(CC(C)=O)C(=O)O3)O2)O1` (stereo partly drawn) showed a TGI of 32.2 µM.

Consider `C=C(CN1CCc2ccccc2C1)c1ccc(C(=O)Nc2cnccn2)cc1`, for which the GI50 is 44000 nM and the TGI is over 100 µM.

For `CCOc1ccc2c(c1)[n+]([O-])c(S(=O)(=O)c1ccc(C)cc1)c(N)[n+]2[O-]`, the TGI is over 100 µM.

The compound `CC12CC[C@@H](C(C)(C)O)C1[C@@H](O)CC1(C)C2CCC2[C@@]3(C)CC[C@H](O)C(C)(C)C3C(O)C[C@]21C` (stereo partly drawn) returned a TGI of 34.7 µM.

`CCOC(=O)NC(=O)c1cn(C2OC(COC(=O)CCCCCCCCC(=O)OCC3OC(n4cc(C(=O)NC(=O)OCC)c(=O)[nH]c4=O)C(O)C3O)C(O)C2O)c(=O)[nH]c1=O` (stereo not drawn) yielded a TGI of over 100 µM.

As for `Cc1ccc(C)c(NC(=O)CC/C(=N\NC(=O)C(=O)NN)C(C)C(=O)c2ccc(O)cc2)c1` (stereo not drawn), the TGI is over 100 µM.

As for `N=C1CSC2=NC3=C(CCC/C3=C\c3ccccc3)C(c3ccccc3)N12` (stereo not drawn), the TGI is 23 µM.

Take `COc1ccc(CNc2cc(OC)c(OC)c(OC)c2)cc1`: the TGI was over 100 µM.

As for `COc1ccccc1C1C(C(=O)Nc2ccccc2)=C(C)NC(C)=C1C(=O)Nc1ccccc1`, the TGI was over 100 µM.

For the compound `OCc1ccc2[n+](c1)CCC1c3ccccc3NC21` (stereo not drawn), the TGI was over 300 µM.

For `COc1cccc(-c2cc(=O)c3cc(N(C)C)ccc3[nH]2)c1`, the GI50 was 16.3 nM and 3.63 nM; the TGI was over 100 µM.

Consider `CCCCCCCCCCCC(=O)CC(=O)c1c(O)cccc1O`, for which the TGI is 90.1 µM.

`CN(C(=O)C12C3C4C1C1C2C3C41C(=O)C(C)(C)C)C(C)(C)C` (stereo not drawn) had a TGI of over 100 µM.

`Cc1cc2c(cc1C)[n+](=O)c(C(=O)CC(=O)C(=O)Nc1c(C(C)C)cccc1C(C)C)c(C)n2[O-]` showed a TGI of over 100 µM.

`COc1ccc2cc1Oc1ccc(cc1)CC1c3cc(c(OC)cc3CCN1C)Oc1c3c(cc4c1C(C2)N(C)CC4)OCO3` (stereo not drawn) yielded a TGI of 30.1 µM.

`COc1ccc(OC)c(NC(=O)C(=O)C(C(C)=O)c2nc3ccc(Cl)cc3[nH]c2=O)c1` (stereo not drawn) showed a TGI of over 50 µM.

On to `N#CC(C(=N/O)/C(=N/O)C(C#N)c1ccc(Cl)cc1)c1ccc(Cl)cc1` (stereo not drawn), for which the TGI was over 100 µM.

The values above are taken from PubChem BioAssay (NCI).
